Measurements taken from ChEMBL document CHEMBL1629662, “Antimicrobial activity of prulifloxacin tested against a worldwide collection of gastroenteritis-producing pathogens, including those causing traveler's diarrhea” (2009).

Test system: Yersinia pseudotuberculosis
Assay: Antibacterial activity against Yersinia pseudotuberculosis assessed as percent resistant isolates by broth microdilution method
Assay type: functional

Row | Structure (SMILES) | Activity
1 | CC1(C)S[C@@H]2[C@H](NC(=O)[C@H](N)c3ccccc3)C(=O)N2[C@H]1C(=O)O [AMPICILLIN] | 91.3%
2 | O=C(O)c1cn(C2CC2)c2cc(N3CCNCC3)c(F)cc2c1=O [CIPROFLOXACIN] | 0%
3 | C[C@H]1c2cccc(O)c2C(=O)C2=C(O)[C@]3(O)C(=O)C(C(N)=O)=C(O)[C@@H](N(C)C)[C@@H]3[C@@H](O)[C@@H]21.O [DOXYCYCLINE] | 4.3%
4 | CCn1cc(C(=O)O)c(=O)c2ccc(C)nc21 [NALIDIXIC ACID] | 6.5%
5 | CC1Sc2c(C(=O)O)c(=O)c3cc(F)c(N4CCNCC4)cc3n21 (stereo not given) [ULIFLOXACIN] | 0%
